Test system: K24384-001-R-PDC complex spheroid growth
Test: Anticancer human tumor K24384-001-R-PDC patient-derived pancreatic adenocarcinoma cell line growth inhibition [AhR]
Conditions: for IC50: curve of first compound; for viability, T/C: stronger effect = lower value
Method in brief: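 Complex tumor spheroids co-cultured with HUVEC and human MSC stroma; AhR antagonists tested in combination with standard-of-care and investigational agents. Top concentration at or near clinical Cmax (else 10 microM), half-log dilutions; growth expressed as percent test/control.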

[1] = second compound 0.1 µM, first compound 0.00316 µM
[2] = second compound 0.1 µM, first compound 0.01 µM
[3] = second compound 0.1 µM, first compound 0.0316 µM
[4] = second compound 0.1 µM, first compound 0.1 µM
[5] = second compound 0.316 µM, first compound 0.00316 µM
[6] = second compound 0.316 µM, first compound 0.01 µM
[7] = second compound 0.316 µM, first compound 0.0316 µM
[8] = second compound 0.316 µM, first compound 0.1 µM
[9] = second compound 1 µM, first compound 0.00316 µM
[10] = second compound 1 µM, first compound 0.01 µM
[11] = second compound 1 µM, first compound 0.0316 µM
[12] = second compound 1 µM, first compound 0.1 µM
[13] = second compound 3.16 µM, first compound 0.00316 µM
[14] = second compound 3.16 µM, first compound 0.01 µM
[15] = second compound 3.16 µM, first compound 0.0316 µM
[16] = second compound 3.16 µM, first compound 0.1 µM
[17] = second compound 10 µM, first compound 0.00316 µM
[18] = second compound 10 µM, first compound 0.01 µM
[19] = second compound 10 µM, first compound 0.0316 µM
[20] = second compound 10 µM, first compound 0.1 µM
[21] = second compound 0.1 µM, first compound 0.316 µM
[22] = second compound 0.1 µM, first compound 1 µM
[23] = second compound 0.1 µM, first compound 3.16 µM
[24] = second compound 0.1 µM, first compound 10 µM
[25] = second compound 0.316 µM, first compound 0.316 µM
[26] = second compound 0.316 µM, first compound 1 µM
[27] = second compound 0.316 µM, first compound 3.16 µM
[28] = second compound 0.316 µM, first compound 10 µM
[29] = second compound 1 µM, first compound 0.316 µM
[30] = second compound 1 µM, first compound 1 µM
[31] = second compound 1 µM, first compound 3.16 µM
[32] = second compound 1 µM, first compound 10 µM
[33] = second compound 3.16 µM, first compound 0.316 µM
[34] = second compound 3.16 µM, first compound 1 µM
[35] = second compound 3.16 µM, first compound 3.16 µM
[36] = second compound 3.16 µM, first compound 10 µM
[37] = second compound 10 µM, first compound 0.316 µM
[38] = second compound 10 µM, first compound 1 µM
[39] = second compound 10 µM, first compound 3.16 µM
[40] = second compound 10 µM, first compound 10 µM
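Wherever viability, T/C is given: percent of DMSO vehicle-treated spheroid viability set as 100%.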

SMILES: CC[C@@]1(O)C(=O)OCc2c1cc1n(c2=O)Cc2cc3c(CN(C)C)c(O)ccc3nc2-1 + Cc1ccccc1N=Nc1ccc(NC(=O)c2ccnn2C)c(C)c1
- IC50 (second compound 0.1 µM): 28.1 nM
- IC50 (second compound 0.316 µM): 24.5 nM
- IC50 (second compound 1 µM): 28.4 nM
- IC50 (second compound 3.16 µM): 19.6 nM
- IC50 (second compound 10 µM): 30.7 nM
- viability, T/C (second compound 0.1 µM, first compound 0.000316 µM): 93.4%
- viability, T/C (second compound 0.1 µM, first compound 0.001 µM): 96.2%
- viability, T/C [1]: 95.4%
- viability, T/C [2]: 72.2%
- viability, T/C [3]: 48.5%
- viability, T/C [4]: 44.9%
- viability, T/C (second compound 0.316 µM, first compound 0.000316 µM): 97.3%
- viability, T/C (second compound 0.316 µM, first compound 0.001 µM): 90.7%
- viability, T/C [5]: 98.6%
- viability, T/C [6]: 70.5%
- viability, T/C [7]: 46.9%
- viability, T/C [8]: 39.6%
- viability, T/C (second compound 1 µM, first compound 0.000316 µM): 101%
- viability, T/C (second compound 1 µM, first compound 0.001 µM): 94.1%
- viability, T/C [9]: 94.7%
- viability, T/C [10]: 67.8%
- viability, T/C [11]: 50.2%
- viability, T/C [12]: 38.4%
- viability, T/C (second compound 3.16 µM, first compound 0.000316 µM): 87.3%
- viability, T/C (second compound 3.16 µM, first compound 0.001 µM): 99.8%
- viability, T/C [13]: 92.5%
- viability, T/C [14]: 65.8%
- viability, T/C [15]: 38.3%
- viability, T/C [16]: 39.1%
- viability, T/C (second compound 10 µM, first compound 0.000316 µM): 111%
- viability, T/C (second compound 10 µM, first compound 0.001 µM): 101%
- viability, T/C [17]: 109%
- viability, T/C [18]: 68.7%
- viability, T/C [19]: 51.5%
- viability, T/C [20]: 47.4%

SMILES: COc1cc(C2c3cc4c(cc3C(OC3OC5COC(C)OC5C(O)C3O)C3COC(=O)C23)OCO4)cc(OC)c1O (stereo not given) + Cc1ccccc1N=Nc1ccc(NC(=O)c2ccnn2C)c(C)c1
- IC50 (second compound 0.1 µM): 955 nM
- IC50 (second compound 0.316 µM): 1090 nM
- IC50 (second compound 1 µM): 830 nM
- IC50 (second compound 3.16 µM): 969 nM
- IC50 (second compound 10 µM): 2730 nM
- viability, T/C [3]: 97.7%
- viability, T/C [4]: 96.3%
- viability, T/C [21]: 77.9%
- viability, T/C [22]: 49.6%
- viability, T/C [23]: 35.2%
- viability, T/C [24]: 35.6%
- viability, T/C [7]: 104%
- viability, T/C [8]: 92.5%
- viability, T/C [25]: 66.3%
- viability, T/C [26]: 55.2%
- viability, T/C [27]: 36.5%
- viability, T/C [28]: 38.7%
- viability, T/C [11]: 102%
- viability, T/C [12]: 101%
- viability, T/C [29]: 83.1%
- viability, T/C [30]: 43.6%
- viability, T/C [31]: 33.9%
- viability, T/C [32]: 31.7%
- viability, T/C [15]: 78.3%
- viability, T/C [16]: 89.1%
- viability, T/C [33]: 64.4%
- viability, T/C [34]: 51.6%
- viability, T/C [35]: 39.7%
- viability, T/C [36]: 35.5%
- viability, T/C [19]: 102%
- viability, T/C [20]: 98.5%
- viability, T/C [37]: 88.6%
- viability, T/C [38]: 63.9%
- viability, T/C [39]: 46.2%
- viability, T/C [40]: 46.4%

SMILES: COc1cccc2c1C(=O)c1c(O)c3c(c(O)c1C2=O)CC(O)(C(=O)CO)CC3OC1CC(N)C(O)C(C)O1 (stereo not given) + Cc1ccccc1N=Nc1ccc(NC(=O)c2ccnn2C)c(C)c1
- IC50 (second compound 0.1 µM): 68.9 nM
- IC50 (second compound 0.316 µM): 54.7 nM
- IC50 (second compound 1 µM): < 31.6 nM
- IC50 (second compound 3.16 µM): < 31.6 nM
- IC50 (second compound 10 µM): 50.4 nM
- viability, T/C [3]: 57.9%
- viability, T/C [4]: 45.7%
- viability, T/C [21]: 22.5%
- viability, T/C [22]: 7.05%
- viability, T/C [23]: 3.16%
- viability, T/C [24]: 7.56%
- viability, T/C [7]: 53.7%
- viability, T/C [8]: 46%
- viability, T/C [25]: 19%
- viability, T/C [26]: 8.11%
- viability, T/C [27]: 2.84%
- viability, T/C [28]: 8.04%
- viability, T/C [11]: 42%
- viability, T/C [12]: 42%
- viability, T/C [29]: 12.8%
- viability, T/C [30]: 7.59%
- viability, T/C [31]: 2.46%
- viability, T/C [32]: 8.88%
- viability, T/C [15]: 47.6%
- viability, T/C [16]: 40.1%
- viability, T/C [33]: 14.3%
- viability, T/C [34]: 2.98%
- viability, T/C [35]: 6.7%
- viability, T/C [36]: 6.51%
- viability, T/C [19]: 55.9%
- viability, T/C [20]: 41.3%
- viability, T/C [37]: 9.04%
- viability, T/C [38]: 8.14%
- viability, T/C [39]: 3.61%
- viability, T/C [40]: 9.36%

SMILES: Nc1ncn(C2CC(O)C(CO)O2)c(=O)n1 (stereo not given) + Cc1ccccc1N=Nc1ccc(NC(=O)c2ccnn2C)c(C)c1
- IC50 (second compound 0.1 µM): > 1000 nM
- IC50 (second compound 0.316 µM): > 1000 nM
- IC50 (second compound 1 µM): > 1000 nM
- IC50 (second compound 3.16 µM): > 1000 nM
- IC50 (second compound 10 µM): > 1000 nM
- viability, T/C [1]: 108%
- viability, T/C [2]: 114%
- viability, T/C [3]: 90.2%
- viability, T/C [4]: 79.4%
- viability, T/C [21]: 87.5%
- viability, T/C [22]: 68.8%
- viability, T/C [5]: 102%
- viability, T/C [6]: 112%
- viability, T/C [7]: 100%
- viability, T/C [8]: 103%
- viability, T/C [25]: 80.6%
- viability, T/C [26]: 71.4%
- viability, T/C [9]: 103%
- viability, T/C [10]: 99.2%
- viability, T/C [11]: 90%
- viability, T/C [12]: 89.5%
- viability, T/C [29]: 73.2%
- viability, T/C [30]: 66.9%
- viability, T/C [13]: 89.4%
- viability, T/C [14]: 85.7%
- viability, T/C [15]: 83.5%
- viability, T/C [16]: 68.9%
- viability, T/C [33]: 64.9%
- viability, T/C [34]: 57.5%
- viability, T/C [17]: 93.6%
- viability, T/C [18]: 95.1%
- viability, T/C [19]: 97.7%
- viability, T/C [20]: 79%
- viability, T/C [37]: 66.7%
- viability, T/C [38]: 58.1%
